Results on three molecules are retold here after patent publication US20240207292A1, “BORONIC ACID COMPOUNDS, COMPOSITIONS AND METHODS” (Trustees of Tufts College, priority 2021, published 2024).

The nature of series [1]: Degradation in aqueous solution of pH about 3 during HPLC purification and lyophilization. The note with it: during HPLC purification and subsequent lyophilization.
For series [2], the target named is recombinant human fibroblast activation protein (FAP) (Homo sapiens (Human), UniProt Q12884). Put plainly: In vitro assay fibroblast activation protein IC50 (Example 21). The series is classed as biochemical.
recombinant human fibroblast activation protein (FAP), sequence (Q12884 whole entry): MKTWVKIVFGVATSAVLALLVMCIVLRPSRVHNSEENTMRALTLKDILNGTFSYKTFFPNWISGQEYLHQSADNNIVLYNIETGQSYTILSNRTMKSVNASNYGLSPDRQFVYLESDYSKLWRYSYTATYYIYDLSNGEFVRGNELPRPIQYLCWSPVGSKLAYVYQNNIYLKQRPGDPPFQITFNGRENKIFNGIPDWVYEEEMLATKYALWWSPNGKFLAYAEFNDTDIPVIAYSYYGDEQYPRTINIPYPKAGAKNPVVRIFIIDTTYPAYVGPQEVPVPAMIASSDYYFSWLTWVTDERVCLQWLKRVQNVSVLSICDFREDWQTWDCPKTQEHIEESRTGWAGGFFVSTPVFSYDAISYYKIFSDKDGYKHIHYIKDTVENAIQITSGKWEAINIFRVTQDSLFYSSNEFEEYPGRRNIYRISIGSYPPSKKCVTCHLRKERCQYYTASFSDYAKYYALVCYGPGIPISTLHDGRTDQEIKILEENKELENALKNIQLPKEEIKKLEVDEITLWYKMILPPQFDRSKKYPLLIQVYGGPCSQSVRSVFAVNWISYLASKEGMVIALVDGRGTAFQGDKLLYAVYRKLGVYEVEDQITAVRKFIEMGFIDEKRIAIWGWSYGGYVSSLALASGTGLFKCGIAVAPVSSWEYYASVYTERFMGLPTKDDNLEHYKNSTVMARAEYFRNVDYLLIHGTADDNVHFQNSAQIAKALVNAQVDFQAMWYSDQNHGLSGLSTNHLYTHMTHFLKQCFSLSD
Series [3] in a line: Solubility in water after lyophilization.
Series [4] concerns the target recombinant human prolyl oligopeptidase (PREP) (Homo sapiens (Human), UniProt P48147). The series is described as follows: In vitro assay prolyl oligopeptidase IC50 (Example 21). The format is biochemical. The procedure:
(§1) The purpose of this assay is to determine the IC50 of various inhibitors against recombinant human dipeptidyl peptidase IV (DPPIV), fibroblast activation protein (FAP) or prolyl oligopeptidase (PREP).
(§2) The assays are conducted in the following steps: • 1 Dissolve the compound in DMSO to a final concentration of 100 mM. From this, prepare a 1 mM stock at pH 7.5 in 50 mM Tris, 140 mM NaCl Buffer (FAP)/pH 7.5 in 25 mM Tris, 250 mM NaCl Buffer/[…]. • 2. Serial dilute (1:10) the 1 mM compound stocks prepared previously into the appropriate assay buffer (FAP: 50 mM Tris, 140 mM NaCl, pH 7.5/PREP: 25 mM Tris, 0.25 M NaCl, pH 7.5/DPPIV: 25 mM Tris, pH 8.0) to one row of a 96-well plate. • 3. […] Dilute the enzymes into their appropriate assay buffers. The final enzyme concentrations should be 0.1, 1.2, and 0.6 nM for DPPIV, FAP and PREP respectively. Add 180 μL to each well needed in columns 2-10. Column 1(A,B,C) should be prepared with 200 μl of appropriate assay buffer as control. Column 1(D,E,F,G,H) should be prepared with 20 μl of appropriate assay buffer and 180 ul enzyme as no inhibitor control. • 5. Add 20 μL of the compound of interest from the dilution plate prepared in step 2 to columns 2-10 of the assay plate where appropriate. Each sample should be tested in triplicate. Allow this to incubate for 10 minutes at room temperature, shaking the plate for the first two minutes. • 6. Add 10 μL of 20× substrate prepared in step 3 to each well and allow this to incubate for 15 minutes at room temperature, shaking the plate for the first two minutes. • 7. Read the fluorescence at λex: 380, λem: 460. (DPcore=[dAla|dSer|Gly]-[boroPro|Pro-nitrile], XXaa=alpha-amino acid)

In series [5] the target is recombinant human dipeptidyl peptidase IV (DPPIV) (Homo sapiens (Human), UniProt P27487). Put plainly: In vitro assay dipeptidyl peptidase IV IC50 (Example 21). The series is classed as biochemical. On the procedure:
as §1, §2

The conditions of series [6]: lyophilized powder reconstituted before administration; cited from earlier work.
Series [7] is described as follows: Stability of bortezomib with excipients in water, propyleneglycol (PG) or butylene glycol (BG) at 1 mg/mL, 50° C. The format is physicochemical. The following applies: in the absence of N-Acetyl-L-methionine. On the procedure: In Examples 1-3 below, Tables 1, 2 and 3 summarize the effectiveness of sulfur compounds in stabilizing bortezomib such as against oxidation and decomposition reactions. For each of the following Examples 1-3, the following procedures were used: Samples preparation: 100 mg of the API (active pharmaceutical ingredient) was suspended into 100 mL of water or other ratioed solvents, mixed well by using a vortex mixer and sonicator (with gentle warm if necessary) to make a 1 mg/mL of solution A. 10 mg of each excipient was weighed into avial, and 1 mL of solution A was added, mixed well to give the test solution B (10:1 of excipient/API). Took 100 μL of solution B and diluted into 1 mL with solution A to give the test solution C (1:1 of excipient/API). Took 100 μL of solution C and diluted into 1 mL with solution A to give the test solution D (0.1:1 of excipient/API). For solid powderform of Bortezomib with the excipients, method in US 2005/0282742 A1 was adopted. […]
Aqueous formulations of bortezomib together with a number of sulfur-containing compounds in varying weight ratios were evaluated for stability over time based on purity of Bortezomib in water, propyleneglycol (PG) or butylene glycol (BG) at 1 mg/mL, 50° C.

A further series is described as follows: physchem. The following applies: water.

Like-named read-outs stand apart in the source and are kept apart here. Where only a bound is given, the exact number is not on record here.

recombinant human prolyl oligopeptidase (PREP), sequence (P48147 whole entry): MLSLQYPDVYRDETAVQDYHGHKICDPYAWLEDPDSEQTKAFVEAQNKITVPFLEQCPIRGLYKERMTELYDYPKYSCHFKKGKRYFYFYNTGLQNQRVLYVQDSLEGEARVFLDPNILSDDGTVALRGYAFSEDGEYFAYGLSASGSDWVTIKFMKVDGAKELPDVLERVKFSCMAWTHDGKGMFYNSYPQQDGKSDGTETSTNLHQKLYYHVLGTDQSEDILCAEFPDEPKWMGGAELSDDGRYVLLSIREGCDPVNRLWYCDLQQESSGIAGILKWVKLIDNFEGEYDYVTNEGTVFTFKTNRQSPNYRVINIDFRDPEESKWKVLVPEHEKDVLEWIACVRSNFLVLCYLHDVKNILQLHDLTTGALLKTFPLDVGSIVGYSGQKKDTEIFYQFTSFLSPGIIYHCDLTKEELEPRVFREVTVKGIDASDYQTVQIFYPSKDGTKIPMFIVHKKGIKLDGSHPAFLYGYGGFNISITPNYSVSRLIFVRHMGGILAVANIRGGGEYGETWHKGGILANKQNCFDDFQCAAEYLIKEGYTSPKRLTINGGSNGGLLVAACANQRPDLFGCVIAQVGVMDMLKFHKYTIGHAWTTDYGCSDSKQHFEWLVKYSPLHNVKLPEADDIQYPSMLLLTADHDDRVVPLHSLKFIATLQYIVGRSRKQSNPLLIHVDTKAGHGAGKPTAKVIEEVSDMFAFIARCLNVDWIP
recombinant human dipeptidyl peptidase IV (DPPIV), sequence (P27487 whole entry): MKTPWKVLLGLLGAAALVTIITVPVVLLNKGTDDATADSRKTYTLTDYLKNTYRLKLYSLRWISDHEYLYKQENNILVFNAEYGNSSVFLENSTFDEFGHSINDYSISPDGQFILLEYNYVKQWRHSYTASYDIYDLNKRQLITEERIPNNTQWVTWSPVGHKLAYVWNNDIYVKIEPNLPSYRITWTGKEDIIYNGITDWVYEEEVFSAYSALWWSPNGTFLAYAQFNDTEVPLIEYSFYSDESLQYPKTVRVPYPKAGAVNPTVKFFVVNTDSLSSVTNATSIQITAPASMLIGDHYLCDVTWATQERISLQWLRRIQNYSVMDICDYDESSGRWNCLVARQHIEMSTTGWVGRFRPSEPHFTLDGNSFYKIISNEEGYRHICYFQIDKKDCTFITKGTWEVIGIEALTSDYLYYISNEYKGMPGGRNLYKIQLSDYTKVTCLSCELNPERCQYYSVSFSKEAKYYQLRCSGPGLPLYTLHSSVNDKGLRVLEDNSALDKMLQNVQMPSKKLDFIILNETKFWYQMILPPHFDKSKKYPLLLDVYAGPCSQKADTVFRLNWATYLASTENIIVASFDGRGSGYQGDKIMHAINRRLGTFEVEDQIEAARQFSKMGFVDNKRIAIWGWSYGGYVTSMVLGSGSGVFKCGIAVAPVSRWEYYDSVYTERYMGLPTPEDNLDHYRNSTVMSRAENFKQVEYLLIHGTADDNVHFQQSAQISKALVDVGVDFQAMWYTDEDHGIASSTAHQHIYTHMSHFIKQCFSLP

For `C[C@@H](NC(=O)c1ccc(CNC(=O)CN2CCN3CCN4CCN(CC2)CC(=O)[O][Lu]([O]C(=O)C3)[O]C(=O)C4)cc1)C(=O)N1CCC[C@H]1B(O)O` [6555LU], the “degradation in aqueous solution” value in series [1] was “did not observe any sign of degradation”. The half-inhibitory concentration (IC50) in series [2] is 0.014 µM; in series [4], 3.4 µM; in series [5], more than 100 µM. Besides, the solubility in water in series [3] is listed as more than 50 mg/mL.
On to `CC(C)C[C@H](NC(=O)[C@H](Cc1ccccc1)NC(=O)c1cnccn1)B(O)O` [Bortezomib, reference compound], for which the “time the reconstituted solution is sufficiently stable” value in series [6] was “up to 8 hours”. This molecule also showed a decomposition of bortezomib in series [7] of 67%.
Consider `C[C@@H](NC(=O)[C@H]1CC[C@H](CNC(=O)CN2CCN(CC(=O)O)CCN(CC(=O)O)CCN(CC(=O)O)CC2)CC1)C(=O)N1CCC[C@H]1B(O)O` [compound 6952], for which the “degradation in aqueous solution” value in series [1] was “did not observe any sign of degradation”. In addition, the 50% inhibitory concentration (IC50) in series [2] (Z-Gly-Pro-AMC, 1.2 nM enzyme) is 0.0047 µM; in series [4] (Z-Gly-Pro-AMC, 0.6 nM enzyme) it was 4.6 µM; in series [5] (Gly-Pro-AMC, 0.1 nM enzyme), more than 100 µM. Also, in the series “physchem”, the solubility was more than 50 mg/mL.

Usually IC50 stands for the concentration that inhibits the measured activity by half. One may read the solubility as how much of the substance goes into solution per volume.
